Measured values reported in patent US9695119B2, “Methionine analogs and methods of using same” (Bioxiness Pharmaceuticals, Inc., priority 2008, dated 2017).
Read-outs that look alike come from different tables or passages of the source.

Assays:
[1] = molecular target: E. coli Methionyl-tRNA synthetase (Escherichia coli, UniProt P00959); assay: Enzymatic aminoacylation tRNA charging assay; type: biochemical
Procedure: The assay system is as described by Hartman M et al, 2006 Enzymatic aminoacylation of tRNA with unnatural amino acids. PNAS. […] Each assay contains 40 mM Hepes (pH 7.4), 17 mM MgCl2, 45 mM KCl, 3.4 mM 2-mercaptoethanol, 6 mM ATP, 6% glycerol, 350 μM E. coli tRNA (Roche), 0.09 mg/mL BSA, 910 nM Methionyl-tRNA synthetase (MetRS) and amino acids in 100-1,000 μM range. […] Samples are transferred to ice bath to stop the reactions and then small aliquot (2 μL) samples are precipitated using 500 μL of 5% cold TCA onto Whatmann filter papers and vacuumed and then dried under a heat lamp. Radioactivity of each sample is measured as counts per minute (CPM), as compared to controls (without the analog). Results for the S enantiomer of I-A ((S)-2-amino-4-(methylthio)butane-1-sulfonic acid hydrochloride) are shown below in Table 11.

E. coli (DH5-α) = assay: Growth inhibition of E. coli by methionine analogs, 96-well plate, OD 550 nm over time; type: cell-based; conditions: E. coli, 12.5 mM, OD 550 nm
From the text: Comparative Minimum Bactericidal Concentration (MBC) results provide estimates of the susceptibility of various test articles against test organisms. A modification of the […] (NCCL) Standardized Protocol “Methods for dilution antimicrobial susceptibility tests for bacteria that grow aerobically” was used in these studies. Sterile Phosphate Buffer Saline (PBS) at pH 7.0 (vehicle) was used as the diluent. Use of such diluent allows for the determination of the intrinsic activity of our test articles in the absence of any interfering molecules. Specifically, each test article was diluted using 2-fold serial dilution in 96-well plate to give a range of concentrations from approximately 50 mM to 0.05 mM in a final volume of 0.1 mL. Each dilution was inoculated with 5×10^5 CFU/mL test bacteria. The initial optical density as absorbance of each well was read at OD 550 nm using ThermoMax plate reader. […] At various time intervals post-treatment, OD reading at 550 nm was recorded at various time intervals. FIG. 1A and Table 1 show time dependent growth inhibition capability of analogs on E. coli at 12.5 mM. For FIGS. 1A and 1B, the 96-well plate format was used to culture E. coli (DH5-α) cells in M9 minimal media supplemented with glucose (M9) or same media supplemented with a range of concentrations of various analogs. Experiments were carried out in duplicate.

[2] = tested on: CV-1 (African Green Monkey Kidney Cells) cells; conditions: 60 min, pH 7
Procedure: Preliminary studies of cytotoxicity were performed in a mammalian cell viability assay.
CV-1 cells were propagated in DMEM plus 8% FBS according to supplier's recommendations. CV-1 cells were seeded at 1.5×10^4 cells per well in 96-well plates and incubated overnight at 37° C. On the day of testing, growth medium was aspirated from each well, and 20 μl fresh medium was added per well. Test articles were diluted from 50 mM to 0.05 mM by 2-fold serial dilution using PBS at pH 7.0 for each test article. After which 80 μl of each dilution was added to each well for a total volume of 100 μl per well. Following 60 minutes exposure at 37° C., test articles were aspirated and replaced with fresh 100 μl tissue culture media and incubated for 24 hours at 37° C. Next day cell culture media was removed and cell viability was determined by addition of WST-8 (Dojindo, Japan) reagent and the absorption at 450 nm read spectrophotometrically. Orange-red formazan, which is produced by live cells, is a direct measure of cell viability in this assay.
(§1) Results are expressed as percentage of cells surviving the treatment as compared to PBS.

L929 cells = conditions: mouse, 60 min
Procedure: Cytotoxicity is assessed by a colorimetric assay system (Sagripanti J-L, Bonifacino A. Cytotoxicity of Liquid Disinfectants. Surgical Infections, 2000; 1(1): 3-14, the content of which is hereby incorporated by reference, particularly with respect to the experimental methods described therein), using 3′-(phenylamino-carbonyl)-3,4-tetrazo-lium-bis(4-methoxy-6-nitro) benzene sulfonic acid hydrate (XTT), ProCheck™ cell viability assay (Evaluation of a soluble tetrazolium/formazan assay for cell growth and drug sensitivity in culture using human and other tumor cell lines described by Scudiero D A, Shoemaker R A H, Paul K D, Monks A, Tierney S, Nofziger T H, Currens M J, Seniff D, Boyd M R. Cancer Res. 1988 Sep. 1; 48(17):4827-33, the content of which is hereby incorporated by reference, particularly with respect to the experimental methods described therein). Similar approaches for determining the cell viability are used by other investigators. Three cell types are used: […] (L929), primary human skin fibroblast and primary human keratinocyte cells cultured in Dulbecco Modified Eagle's Medium and Keratinocyte defined medium with corresponding growth factors plus antibiotics. Cells are trypsinized and counted under the microscope and seeded at 1000-to-2000 cells per well of a flat-bottom 96-well plate. Cells are allowed to grow overnight at 37° C. Tissue culture media is removed the following day and cells are rinsed with fresh media 1× and then left in 50 μL of tissue culture media. Test articles are prepared as 2-fold dilutions and 200 μL is added into each set of 4-wells (total volume per well is 250 μL). Cells are exposed to test articles for 60 min at room temperature. Immediately after the exposed time, test article from each well is removed and cells are fed with 250 μL of fresh media. Plates are incubated at 37° C. for 18-20 hr. The following day media is removed again and replaced with 100 μL/well of fresh media containing 10/100 μL XTT-reagent. Cells are incubated under growth conditions (5% CO2 at 37° C. humidified incubator), protected from light, until color development is achieved. Absorbance is read at 450 nm with reference wavelength at 750 nm using Molecular Device ThermoMax Plate reader, blanking the plate on the medium-only assay blank wells. Untreated cells receiving XTT reagents-only serve as positive cell proliferation control.
as §1

Chain of E. coli Methionyl-tRNA synthetase (P00959 whole entry): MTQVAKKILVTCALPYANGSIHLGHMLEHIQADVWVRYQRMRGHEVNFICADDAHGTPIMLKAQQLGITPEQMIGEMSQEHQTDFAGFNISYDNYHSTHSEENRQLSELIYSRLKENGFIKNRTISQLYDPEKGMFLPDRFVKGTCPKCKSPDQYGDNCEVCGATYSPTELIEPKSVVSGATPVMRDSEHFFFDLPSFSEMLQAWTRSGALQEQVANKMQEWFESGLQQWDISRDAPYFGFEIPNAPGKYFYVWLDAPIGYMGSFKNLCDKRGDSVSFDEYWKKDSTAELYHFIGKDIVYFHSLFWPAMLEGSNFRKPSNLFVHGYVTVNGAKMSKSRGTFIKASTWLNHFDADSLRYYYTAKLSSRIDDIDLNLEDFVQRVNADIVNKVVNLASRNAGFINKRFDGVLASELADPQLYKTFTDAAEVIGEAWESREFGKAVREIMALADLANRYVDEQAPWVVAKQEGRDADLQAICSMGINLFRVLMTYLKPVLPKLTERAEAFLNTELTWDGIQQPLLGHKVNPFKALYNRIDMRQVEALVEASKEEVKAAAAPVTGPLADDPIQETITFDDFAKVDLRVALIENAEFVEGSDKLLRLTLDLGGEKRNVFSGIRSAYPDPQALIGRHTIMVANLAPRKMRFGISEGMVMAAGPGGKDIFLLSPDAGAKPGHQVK

SMILES | Absorbance (E. coli (DH5-α); well 12, time 0 hrs) | Absorbance (E. coli (DH5-α); well 12, time 1 hrs) | Absorbance (E. coli (DH5-α); well 12, time 2 hrs) | Absorbance (E. coli (DH5-α); well 12, time 3 hrs) | Absorbance (E. coli (DH5-α); well 12, time 3.75 hrs) | Absorbance (E. coli (DH5-α); well 12, time 5 hrs) | Absorbance (E. coli (DH5-α); well 12, time 6.5 hrs) | Absorbance (E. coli (DH5-α); well 12, time 7.25 hrs) | Absorbance (E. coli (DH5-α); well 12, time 23 hrs) | Percentage of Surviving CV-1 cells relative to PBS ([2]; 0.1 mM) | Percentage of Surviving CV-1 cells relative to PBS ([2]; 0.2 mM) | Percentage of Surviving CV-1 cells relative to PBS ([2]; 0.39 mM) | Percentage of Surviving CV-1 cells relative to PBS ([2]; 0.78 mM) | Percentage of Surviving CV-1 cells relative to PBS ([2]; 1.56 mM) | Percentage of Surviving CV-1 cells relative to PBS ([2]; 3.13 mM) | Percentage of Surviving CV-1 cells relative to PBS ([2]; 6.25 mM) | Percentage of Surviving CV-1 cells relative to PBS ([2]; 12.5 mM) | Percentage of Surviving CV-1 cells relative to PBS ([2]; 25 mM) | Percentage of Surviving CV-1 cells relative to PBS ([2]; 50 mM) | Percentage of Surviving L929 cells relative to control (L929 cells; 0.1 mM) | also measured
CSCC[C@H](N)CS(=O)(=O)O.Cl [I-A, (S)-2-amino-4-(methylthio)butane-1-sulfonic acid hydrochloride] | – | – | – | – | – | – | – | – | – | – | – | – | – | – | – | – | – | – | – | – | Radioactivity, Methionyl-tRNA synthetase tRNA charging ([1]; Experiment #1, I-A 0.04 mM, 1 Minute): 2,476 Counts Per Minute; Radioactivity, Methionyl-tRNA synthetase tRNA charging ([1]; Experiment #1, I-A 0.04 mM, 10 Minutes): 3,466 Counts Per Minute; Radioactivity, Methionyl-tRNA synthetase tRNA charging ([1]; Experiment #1, I-A 0.20 mM, 1 Minute): 2,333 Counts Per Minute; Radioactivity, Methionyl-tRNA synthetase tRNA charging ([1]; Experiment #1, I-A 0.20 mM, 10 Minutes): 3,147 Counts Per Minute; Radioactivity, Methionyl-tRNA synthetase tRNA charging ([1]; Experiment #1, I-A 1.00 mM, 1 Minute): 2,372 Counts Per Minute; Radioactivity, Methionyl-tRNA synthetase tRNA charging ([1]; Experiment #1, I-A 1.00 mM, 10 Minutes): 3,218 Counts Per Minute; Radioactivity, Methionyl-tRNA synthetase tRNA charging ([1]; Experiment #1, I-A 5.00 mM, 1 Minute): 2,007 Counts Per Minute; Radioactivity, Methionyl-tRNA synthetase tRNA charging ([1]; Experiment #1, I-A 5.00 mM, 10 Minutes): 2,891 Counts Per Minute; Radioactivity, Methionyl-tRNA synthetase tRNA charging ([1]; Experiment #2, I-A 0.25 mM, 10 Minutes): 1,701 Counts Per Minute; Radioactivity, Methionyl-tRNA synthetase tRNA charging ([1]; Experiment #2, I-A 1.25 mM, 10 Minutes): 1,907 Counts Per Minute; Radioactivity, Methionyl-tRNA synthetase tRNA charging ([1]; Experiment #2, I-A 5.00 mM, 10 Minutes): 1,575 Counts Per Minute; Radioactivity, Methionyl-tRNA synthetase tRNA charging ([1]; Experiment #2, I-A 12.5 mM, 10 Minutes): 1,672 Counts Per Minute
CSCC[C@H](N)C(=O)NO.Cl [I-AA, (S)-2-amino-N-hydroxy-4-(methylthio)butanamide hydrochloride] | 0.084 | 0.113 | 0.130 | 0.133 | 0.109 | 0.118 | 0.110 | 0.100 | 0.130 | 97% | 95% | 96% | 96% | 100% | 100% | 99% | 101% | 99% | 72% | 100% | Percentage of Surviving L929 cells relative to control (L929 cells; 0.2 mM): 94%; Percentage of Surviving L929 cells relative to control (L929 cells; 0.39 mM): 89%; Percentage of Surviving L929 cells relative to control (L929 cells; 0.78 mM): 87%; Percentage of Surviving L929 cells relative to control (L929 cells; 1.56 mM): 87%; Percentage of Surviving L929 cells relative to control (L929 cells; 3.13 mM): 87%; Percentage of Surviving L929 cells relative to control (L929 cells; 6.25 mM): 85%; Percentage of Surviving L929 cells relative to control (L929 cells; 12.5 mM): 86%; Percentage of Surviving L929 cells relative to control (L929 cells; 25 mM): 85%; Percentage of Surviving L929 cells relative to control (L929 cells; 50 mM): 82%
CSCC[C@H](N)C(=O)O [Methionine] | 0.085 | 0.123 | 0.164 | 0.168 | 0.151 | 0.191 | 0.202 | 0.202 | 0.427 | 98% | 96% | 95% | 96% | 99% | 100% | 100% | 99% | 99% | 66% | 104% | Percentage of Surviving L929 cells relative to control (L929 cells; 0.2 mM): 101%; Percentage of Surviving L929 cells relative to control (L929 cells; 0.39 mM): 100%; Percentage of Surviving L929 cells relative to control (L929 cells; 0.78 mM): 95%; Percentage of Surviving L929 cells relative to control (L929 cells; 1.56 mM): 87%; Percentage of Surviving L929 cells relative to control (L929 cells; 3.13 mM): 86%; Percentage of Surviving L929 cells relative to control (L929 cells; 6.25 mM): 84%; Percentage of Surviving L929 cells relative to control (L929 cells; 12.5 mM): 85%; Percentage of Surviving L929 cells relative to control (L929 cells; 25 mM): 85%; Percentage of Surviving L929 cells relative to control (L929 cells; 50 mM): 81%
